{
  "source": "patent US11033545B2",
  "about": "“Negative allosteric modulators of MGLUR5 for use in the treatment of mature brain damages” (Sinntaxis AB, priority 2016, dated 2021)",
  "system": "male Sprague Dawley rats",
  "test": "Paw placement test after photothrombotic stroke in the rat",
  "format": "in vivo",
  "conditions": "rat",
  "description": "Animals. All experiments were carried out with the approval of the Malmö-Lund animal review board and according to the ARRIVE guidelines. Animals were housed under reverse light conditions, with the testing performed during the dark period when the rats are active. The experiments were carried out on male Sprague Dawley rats (11 weeks of age, Charles River, Scanbur A/S Karlslunde, Denmark). The studies were subjected to randomization and carried out in a blinded fashion to the investigators who performed the surgeries and behavioral assessment.\nAdministration of compound. The compound was injected as a bolus dose of 1 ml/kg into the lower quadrant of the abdomen.\nExperimental stroke. The animals were anesthetized by isoflurane (approximately 2% in 02 under spontaneous ventilation) and placed into stereotaxic frame. Temperature was monitored during surgery using a rectal temperature probe and animals were kept at 37.0-37.5±0.2° C. by means of a heating pad with feedback control. A sagittal skin incision was made and subcutaneous connective tissue was removed and the skull was dried. Thereafter, the photosensitizer dye Rose Bengal (0.5 mL at 10 mg/mL) was infused in the tail vein. Two minutes after injection, the skull was illuminated with cold light (Schott, KL 1500 LCD) on an area of 8 to 4.5 mm for 15 min (from +4 to −4 mm antero-posterior and from 0.5 to 5 mm on the left from bregma). Thereafter the tail and the scalp incisions were sutured and the rats transferred to their home cage. The functional deficit was assessed 2 h after the onset of the stroke using the limb placement test and only the animals having a score 0, for both fore- and hindlimb contralateral to the brain damaged hemisphere were used for the study.\nTest of neurological function. The paw placement test. The cortical damage inflicted by the phothrombosis, causes a deficit due to neuronal loss in the sensori-motor area and depression of functions in neuronal networks in the vicinity of the lesion. […] This test provides information on the tactile/proprioceptive response to limb stimulation. Animals were placed with all 4 paws on the table top, and the paws to be tested along the edge. The rat was moved over the edge so the paws to be tested loose contact with the table surface. The ability of the animals to place the limb back onto the table surface when the rat was moved towards the edge was evaluated. Importantly, the head was held at 45° angle, so that visual and whisker/snout stimulation was prevented. A prompt placement of the limb onto the table was scored as 1. Incomplete placing of the limb was scored as 0.5, and complete extension of the limb and paw was scored as 0. In order to obtain groups with a similar functional deficit prior to treatment of the animals with drugs or vehicle, selective sorting was performed on day 2 after experimental stroke, a time point of recovery when the infarct development had subsided.\nAdministration of the compounds. The compounds were administrated orally (p.o.) by catheters placed in the stomach. The amount of solutions were 0.2 ml/rat and 0.1 ml/mice.\nInduction of stroke was as made as in Example 1 for rats and as in Example 2 in mice. Assessment of neurological function was performed as in Example 1 for rats and as in Example 2 for mice. The animals were perfused and immunostained as in Example 1, and the infarct size was assessed as in Example 1.\nInduction of stroke, assessment of neurological function, perfusion of animals, immunostaining and assessment of infarct size were made as in Example 1.",
  "key": {"[1]": {"conditions": "time course of recovery of function, treatment starting 2 days after stroke"}},
  "data": [
    {"molecule": "Cc1nc(C#Cc2cccnc2)cs1", "note": "[SIN007, 3-[(2methyl-1,3-thiazol-4-yl)ethynyl]pyridine]", "values": [
      {"measurement": "paw placement score (recovery of paw placement function)", "setting": "5 mg/kg i.p. daily starting 2 days after stroke, assessed at 14 days after stroke, vs vehicle, p<0.001, FIG. 1A", "result": "almost complete recovery of paw placement function"},
      {"measurement": "persistence of recovery of function after termination of the treatment", "setting": "after 5 days treatment, FIG. 1D", "result": "at least 7 days"},
      {"measurement": "days of treatment for a maximal treatment effect", "setting": "[1]", "result": 14, "unit": "days"},
      {"measurement": "days of treatment required for a treatment effect", "setting": "[1]", "result": "At least 4 days"}
    ]}
  ]
}
